Measured values as given in patent publication US11510993B2, “Antibody drug conjugate for anti-inflammatory applications” (Merck Sharp & Dohme Corp., priority 2015, dated 2022).

Experiments:
[1] = In vitro stability of drug-linkers in human whole blood (parent and released dexamethasone, LC-MS/MS); conditions: for Calculated Conc. for dexamethasone in human whole blood: released dexamethasone
Method: General Experimental Procedure Human Blood Incubation Human blood was collected the morning of the experiment from at least 3 individuals using K2EDTA as the anticoagulant. An equal volume from each individual was combined for use in the experiment. The experiment started no more than 2 hours after the blood collection. All drug-linker conjugates were solubilized in DMSO to form each 10 mM stock solution. Dosing solution for each linker was prepared by serial dilution of each stock solution using 1:3 acetonitrile:water. All solutions were kept on ice during the experiment.
Human blood was pre-warmed in a 37° C. water bath in an appropriate volume to collect samples over a time course from 0 through 6 hours. Incubating blood was mixed well just prior to sampling to give a homogenous mixture. Aliquots of blood were removed at appropriate time points, added to cold stopping solution, which was methanol containing an appropriate internal standard, and mixed rigorously. The samples were centrifuged at 4000 RPM for 10 minutes after which equal volumes of the supernatant fractions were diluted with cold deionized water. The samples were then ready for analysis.
(§1) A Thermo LX-2 ultra-performance liquid chromatography system coupled with a Sciex API5000 triple quadrupole mass spectrometer was used for the analysis. The payload and drug-linkers were retained and separated by a C18 column and detected by the mass spectrometer. […] Samples were kept in cold stack set at 5° C.

[2] = Solubility of drug-linkers in 20% MeCN/H2O; assay type: physicochemical; conditions: tested at a concentration of 10 mg/mL
Method: The solubility of exemplary drug-linker conjugates in aqueous solutions was evaluated. Linkers utilized in drug conjugates may have aqueous solubility to enable conjugation in aqueous media amenable to protein solubilization. Furthermore, linkers with aqueous solubility are considered hydrophilic, and may confer to the drug conjugate a reduced propensity to aggregate relative to standard hydrophobic linkers in the literature. The following exemplary drug-linkers were tested in an aqueous solution comprising 20% acetonitrile (MeCN/H2O) for solubility at a concentration of 10 mg/mL.

[3] = In vitro stability of drug-linkers in rat liver lysosomal lysate (parent and released dexamethasone, LC-MS/MS); conditions: for Calculated Conc. for dexamethasone rat lysomeal lysate: released dexamethasone
Method: Rat Liver lysosomes were available commercially with a pool of 6 animals. All linker compounds were solubilized in DMSO to form each 10 mM stock solution. Dosing solution for each linker was prepared by serial dilution of each stock solution using 1:3 acetonitrile: water. All solutions were kept on ice during the experiment.
Rat lysosomes were pre-warmed in a 37° C. water bath in an appropriate volume to collect samples over a time course from 0 minutes through 6 hours. Incubating lysosomes were mixed well just prior to sampling to give a homogenous mixture. Aliquots of lysosomes were removed at appropriate time points, added to cold stopping solution, which was methanol containing an appropriate internal standard, and mixed rigorously. The samples were centrifuged at 4000 RPM for 10 minutes after which equal volumes of supernatant were diluted with cold deionized water. The samples were ready for analysis.
as §1

C[C@@H]1C[C@H]2[C@@H]3CCC4=CC(=O)C=C[C@]4(C)[C@@]3(F)[C@@H](O)C[C@]2(C)[C@@]1(O)C(=O)COP(=O)(O)OP(=O)(O)OCCNC(=O)COC1C#CCCCCC1 (stereo partly drawn) [Drug Linker 1-4, 2-(2-(cyclooct-2-yn-1-yloxy)acetamido)ethyl(2-((8 S,9R,10S,11S,13 S,14 S,16R,17R)-9-fluoro-11,17-dihydroxy-10,13,16-trimethyl-3-oxo-6,7,8,9,10,11,12,13,14,15,16,17-dodecahydro-3H-cyclopenta[a]phenanthren-17-yl)-2-oxoethyl) dihydrogen pyrophosphate]
Calculated Conc. for each compound in human whole blood ([1]; 0 m, 37° C.): 1617 nM | Calculated Conc. for each compound in human whole blood ([1]; 1 hr, 37° C.): 1421 nM | Calculated Conc. for each compound in human whole blood ([1]; 6 hr, 37° C.): 1400 nM | Calculated Conc. for each compound in human whole blood ([1]; Matrix spiking (time 0 sample, blood pretreated with stopping reagent)): 3059 nM | Calculated Conc. for dexamethasone in human whole blood ([1]; 0 m): 0 nM | Calculated Conc. for dexamethasone in human whole blood ([1]; 1 hr): 0 nM | Calculated Conc. for dexamethasone in human whole blood ([1]; 6 hr): 0 nM | Calculated Conc. for dexamethasone in human whole blood ([1]; Matrix Spiking): 2 nM | Measured Solubility in 20% MeCN/H2O [2]: >10000 µg/mL | Calculated Conc. for each compound in rat lysomal lysate ([3]; 0 m, 37° C.): 1148.2 nM | Calculated Conc. for each compound in rat lysomal lysate ([3]; 5 m, 37° C.): 158.2 nM | Calculated Conc. for each compound in rat lysomal lysate ([3]; 10 m, 37° C.): 19.0 nM | Calculated Conc. for each compound in rat lysomal lysate ([3]; 15 m, 37° C.): 3.7 nM | Calculated Conc. for each compound in rat lysomal lysate ([3]; Matrix spiking (lysosomes pretreated with stopping reagent)): 2487.3 nM | Calculated Conc. for dexamethasone rat lysomeal lysate ([3]; 0 m): 4.7 nM | Calculated Conc. for dexamethasone rat lysomeal lysate ([3]; 5 m): 320.7 nM | Calculated Conc. for dexamethasone rat lysomeal lysate ([3]; 10 m): 559.4 nM | Calculated Conc. for dexamethasone rat lysomeal lysate ([3]; 15 m): 831.7 nM | Calculated Conc. for dexamethasone rat lysomeal lysate ([3]; 30 m): 1059.6 nM | Calculated Conc. for dexamethasone rat lysomeal lysate ([3]; 1 hr): 1148.8 nM | Calculated Conc. for dexamethasone rat lysomeal lysate ([3]; 2 hr): 854.5 nM | Calculated Conc. for dexamethasone rat lysomeal lysate ([3]; 3 hr): 841.9 nM | Calculated Conc. for dexamethasone rat lysomeal lysate ([3]; 6 hr): 826.6 nM
